Source: patent US20200190470A1, “TEMOZOLOMIDE RESISTANT CELLS AND AN INTEGRATED METHOD FOR CHARACTERIZING THE SAME” (Council of Scientific & Industrial Research, priority 2018, published 2020)

How the values were obtained:
[1] = system: differentiated cells (NDx) of NSP; experiment: TMZ dose response of differentiated NSP cells (NDx); conditions: Homo sapiens
Protocol: For dose-response experiments, four replicates at ˜20,000 cells per well were plated in 96-well Nunc™ tissue culture plates in full growth medium for 24 h, treated with different doses of TMZ in serial dilutions (0.05Me5M) followed by cell viability tests using the MTT assay. Appropriate cell controls (without TMZ treatment) were used to calculate IC50.

[2] = system: U87MG cells; experiment: TMZ dose response, MTT cell viability assay, U87MG; design: AUC (area under dose response curve): unit not given beside the values
[3] = system: NSP cells (neurospheres derived from U87MG); experiment: TMZ dose response, MTT cell viability assay, neurospheres (NSP); design: AUC (area under dose response curve): unit not given beside the values

IC50 [1]: 818 µM | IC50 ([2]; Homo sapiens, U-87 MG): 746 µM | IC50 ([3]; Homo sapiens, U-87 MG): 1040 µM
SMILES: Cn1nnc2c(C(N)=O)ncn2c1=O [Temozolomide]
AUC (area under dose response curve) ([2]; U87MG): 53039 | Emax ([2]; U87MG): 25.53 | Log2 (Hill Slope) ([2]; U87MG): −1.959 | fold resistance ratio ([3]; NSP relative to U87MG): 1.41 | AUC (area under dose response curve) ([3]; Neurospheres (NSP)): 276836 | Emax ([3]; Neurospheres (NSP)): 49.29 | Log2 (Hill Slope) ([3]; Neurospheres (NSP)): 0
